Test results reported in PubChem BioAssay AID434987 (Southern Research Specialized Biocontainment Screening …, 2010).
Calls of active or inactive are those of the source. No rule for the calls is given here.

Tested on: M. tuberculosis H37Rv growth inhibition with meropenem
Experiment: dose response, H37Rv, with and without meropenem (AID 434987);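 also: growth over 7 days at 37 °C before Alamar Blue read on day 9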
[1] = M. tuberculosis H37Rv growth inhibition, measured here: IC50 without meropenem
[2] = M. tuberculosis H37Rv growth inhibition, measured here: IC90 without meropenem
[3] = measured here: IC90 with meropenem

Row | SMILES | IC50 | IC50 [1] | IC90 [2] | IC90 [3]
1 | CCOC(=O)[C@H]1[C@H]2COc3ccc(Br)cc3[C@@H]2N2C(=O)c3cc(OC)c(OC)cc3NC(=O)[C@@]12C | > 50 µM (inactive) | 80.9 µM | > 100 µM | > 50 µM
2 | CCOC(=O)C1CCN(c2ccc(C(N)=O)cc2[N+](=O)[O-])CC1 | 16.3 µM | 55.2 µM | > 100 µM | > 100 µM
3 | CCCn1nc(NC(=O)c2ccco2)c2cc3cc(C)ccc3nc21 | > 100 µM (inactive) | > 100 µM | > 100 µM | > 100 µM
4 | CC(=O)Nc1scc(C)c1-c1nc2ccccc2s1 | > 100 µM (inactive) | > 100 µM | > 100 µM | > 100 µM
5 | CCOC(=O)c1nn(-c2ccc(Cl)cc2)cc1O | > 100 µM (inactive) | > 100 µM | > 100 µM | > 100 µM
6 | O=c1oc(-c2ccccc2F)nc2scc(-c3ccccc3)c12 | 2.19 µM | > 100 µM | > 100 µM | 3.05 µM
7 | O=[N+]([O-])c1cc(C(F)(F)F)ccc1NCCc1c[nH]c2ccc(O)cc12 | 33.9 µM (inactive) | 52.8 µM | > 100 µM | 72.9 µM
8 | O=C(CSc1ncn[nH]1)Nc1cccc2ccccc12 | 29.6 µM (inactive) | 50.7 µM | > 100 µM | 65 µM
9 | NNC(=O)c1oc2nc(-c3ccco3)cc(-c3ccco3)c2c1N | 13.6 µM (inactive) | 23.9 µM | > 100 µM | > 100 µM
10 | COc1ccc(Cn2c(C)nc3c(c(=O)c4ccccc4n3C)c2=O)cc1 | > 100 µM (inactive) | > 100 µM | > 100 µM | > 100 µM
11 | O=C1N/C(=C\c2ccc(O)cc2)C(=O)c2ccccc21 | 21.9 µM | 59.6 µM | > 100 µM | > 100 µM
12 | Cc1nc(Nc2ccc(Cl)cc2Cl)sc1C(=O)Nc1ccccc1 | > 100 µM (inactive) | > 100 µM | > 100 µM | > 100 µM
13 | CC[C@@]1(c2ccccc2OC)C(=O)N(C(=O)OC)N1C(=O)OC | 13.9 µM | > 100 µM | > 100 µM | > 100 µM
14 | COc1ccc(C(=O)NC(=S)NC(C)(C)C)cc1Br | > 100 µM (inactive) | > 100 µM | > 100 µM | > 100 µM
15 | COc1ccc2nc(NC(=O)NC3CCCCC3)sc2c1 | > 100 µM (inactive) | > 100 µM | > 100 µM | > 100 µM
16 | CCCCOc1ccc(/C=N/Nc2cc(N3CCOCC3)nc(C)n2)cc1 | > 100 µM (inactive) | > 100 µM | > 100 µM | > 100 µM
17 | CCC(C(=O)Nc1ccccc1N1CCCC1)c1ccccc1 (configuration not stated) | 48.8 µM (inactive) | > 100 µM | > 100 µM | > 100 µM
18 | CC/C(=N\NC(=S)NC(C)C)c1ccc(OC)c(OC)c1 | 12.9 µM (inactive) | 20.2 µM | 24.7 µM | 15.5 µM
19 | CCC(=O)NC(=S)Nc1ccc(NC(=O)c2cccc([N+](=O)[O-])c2C)cc1 | > 100 µM (inactive) | > 100 µM | > 100 µM | > 100 µM
20 | CC(=O)Nc1ccc(S(=O)(=O)Nc2cccc3cccnc23)cc1 | 13.2 µM (inactive) | 21.5 µM | > 100 µM | 43.3 µM

Row | SMILES | IC50 | IC50 [1] | IC90 [2] | IC90 [3]
21 | COc1ccc(NC(=O)CSc2nncn2C)c([N+](=O)[O-])c1 | 44.5 µM (inactive) | 90.1 µM | > 100 µM | > 100 µM
22 | CCOC(=O)C(=CNc1ccc2c(c1)c1ccccc1n2CC)C(=O)OCC | 15.2 µM | > 100 µM | > 100 µM | > 25 µM
23 | Cc1ccc(-n2nnnc2Sc2nc([N+](=O)[O-])nn2C)c(C)c1 | 16.5 µM | 50.4 µM | > 100 µM | > 100 µM
24 | COc1ccc(C2c3c(C)nn(-c4ccccc4)c3NC(=O)N2c2ccccc2)cc1 (configuration not stated) | 17.4 µM | > 100 µM | > 100 µM | > 100 µM
25 | Cc1ccc(NC(=O)/C=C\C(=O)O)c([N+](=O)[O-])c1 | 56.7 µM (inactive) | 95.7 µM | > 100 µM | > 100 µM
26 | C/C(=N\NC(=S)NCc1ccccc1)c1cccc(Br)c1 | > 100 µM (inactive) | > 100 µM | > 100 µM | > 100 µM
27 | O=C(CCSc1ccccc1)Nc1nc2c(s1)CCCC2 | > 100 µM (inactive) | > 100 µM | > 100 µM | > 100 µM
28 | COc1cc(OC)cc(-c2cc3ccc(OC)cc3cn2)c1 | 29 µM (inactive) | 39 µM | 85.8 µM | 76.9 µM
29 | O=C(/C=C/c1ccccc1[N+](=O)[O-])c1ccc(F)cc1 | 19.8 µM | 94.1 µM | > 100 µM | > 100 µM
30 | Cn1cccc1/C=C1/C(=O)NC(=O)N(Cc2ccc(F)cc2)C1=O | 23.7 µM (inactive) | 46.2 µM | > 50 µM | > 50 µM
31 | CCOC(=O)c1nc(N2CCN(C(=O)OCC)CC2)c2c3c(sc2n1)CCCC3 | 39.5 µM (inactive) | 60.6 µM | 96.6 µM | 40.9 µM
32 | O=C1C2ON(c3ccc(Br)cc3)C(c3cccnc3)C2C(=O)N1C1CCCCC1 (configuration not stated) | > 100 µM (inactive) | > 100 µM | > 100 µM | > 100 µM
33 | Cc1cccc2nc(COc3ccc4ccccc4c3Br)cn12 | 49 µM (inactive) | 47.5 µM | > 100 µM | > 100 µM
34 | c1ccc(-c2noc(-c3cccc4ccccc34)n2)cc1 | 20.2 µM | > 100 µM | > 100 µM | > 100 µM
35 | CCOc1cc(C(=O)N2CCC(CC3CC(c4ccccc4)=NO3)(C(=O)NCc3ccc(OC)cc3)CC2)cc(OCC)c1OCC (configuration not stated) | > 100 µM (inactive) | > 100 µM | > 100 µM | > 100 µM
36 | Cn1c(/C=C/c2ccc(Cl)cc2)c([N+](=O)[O-])c(=O)n(C)c1=O | > 100 µM (inactive) | > 100 µM | > 100 µM | > 100 µM
37 | Cc1sc2nc(C(C)(C)C)oc(=O)c2c1C | > 100 µM (inactive) | > 100 µM | > 100 µM | > 100 µM
38 | Cc1nnnn1/C(=C\c1ccccc1)C(=O)OCC(=O)Nc1ccc(Cl)cc1F | 17 µM (inactive) | 26.7 µM | 35.8 µM | 25.5 µM
39 | COc1cc(OC)cc(-c2c(C#Cc3ccsc3)c3cc(-c4ccc(OC)nc4)ccc3n2C)c1 | > 100 µM (inactive) | > 100 µM | > 100 µM | > 100 µM
40 | O=C(O)c1cc(-c2ccco2)nc2ccc(Br)cc12 | > 100 µM (inactive) | > 100 µM | > 100 µM | > 100 µM

Row | SMILES | IC50 | IC50 [1] | IC90 [2] | IC90 [3]
41 | O=C(NN=C1CCCC1)c1cccs1 | 23.6 µM (inactive) | 50.3 µM | > 100 µM | > 100 µM
42 | COC(=O)CNC(c1ccccc1Cl)c1cc(Br)ccc1NC(=O)CCN1CCOCC1 (configuration not stated) | 19.8 µM | 49.1 µM | 53.7 µM | 34.3 µM
43 | COc1ccc(N2C(=O)NC(=O)/C(=C\c3ccc([N+](=O)[O-])s3)C2=O)cc1 | 16.3 µM (inactive) | 22.9 µM | 25.7 µM | 21.3 µM
44 | O=C(NCCC1=CCCCC1)NC1CCCCC1 | 17.8 µM | > 100 µM | > 100 µM | > 50 µM
45 | CCOC(=O)c1c(C)[nH]c(C)c1C(=O)COC(=O)c1ccc(S(=O)(=O)N(CC)CC)cc1 | 92.6 µM (inactive) | > 100 µM | > 100 µM | > 100 µM
46 | Cc1cccc(OCc2nc(-c3ccccn3)n[nH]2)c1 | 3.43 µM | 22.5 µM | 25.6 µM | 7.37 µM
47 | Cc1onc(-c2ccccc2)c1C(=O)Nc1ccc(-c2nnc3n2CCCCC3)cc1 | 23.8 µM (inactive) | 29.3 µM | 71.2 µM | 38.6 µM
48 | COc1ccc(C(=O)n2c(SC)nc3cc4c(cc32)OCCO4)cc1 | 34.3 µM | > 100 µM | > 100 µM | > 100 µM
49 | CCCCN(C)Cc1cc(=O)oc2cc3c(cc12)CCCC3 | 64.3 µM (inactive) | 80.1 µM | > 100 µM | 82.2 µM
50 | O=C(c1ccc(-c2ccc(Cl)cc2)o1)N1CCN(S(=O)(=O)c2cccs2)CC1 | 95.2 µM (inactive) | > 100 µM | > 100 µM | 99.6 µM
51 | O=C(Nc1ccc(S(=O)(=O)N2CCCCC2)cc1)C1CCCN(C(=O)c2ccc(Cl)cc2)C1 (configuration not stated) | > 100 µM (inactive) | > 100 µM | > 100 µM | > 100 µM
52 | O=C(Nc1c2c(nc3ccccc13)CCCC2)c1ccccc1F | 42.6 µM (inactive) | 74 µM | > 100 µM | > 50 µM
53 | CCc1ccc(NC(=O)C2C3/C=C\CCCCC32)cc1 (configuration not stated) | 72 µM (inactive) | > 100 µM | > 100 µM | > 100 µM
54 | Cc1cc(C(=O)CN2C(=O)NC(C)(CC(C)C)C2=O)c(C)n1-c1ccc2c(c1)OCO2 (configuration not stated) | 70 µM (inactive) | 74.7 µM | 99.9 µM | 96.4 µM
55 | COc1ccc(OC(=O)c2cccc([N+](=O)[O-])c2)c(C(=O)/C=C/c2cccs2)c1 | 27.5 µM | 68.3 µM | > 100 µM | > 100 µM
56 | CC(C)Cn1c2c(c(O)c(C(=O)Nc3nccs3)c1=O)CCCC2 | 3.22 µM | 45.7 µM | 52.4 µM | > 100 µM
57 | CC(NC(=O)CSc1nc2ccccc2c(=O)[nH]1)c1ccccc1 (configuration not stated) | 18.9 µM (inactive) | 23.8 µM | > 100 µM | 60.9 µM
58 | CCO[C@H]1OC(C(=O)NCc2nc3ccccc3[nH]2)=C[C@@H](c2ccc(C(F)(F)F)cc2)[C@@H]1CCCO | > 100 µM (inactive) | > 100 µM | > 100 µM | > 100 µM
